Values quoted from earlier work as cited in article PMC7456637, “Pharmacokinetic characterization of fluorocoxib D, a cyclooxygenase-2-targeted optical imaging agent for detection of cancer” (Journal of Biomedical Optics, 2020).

How the values were obtained:
RAW264.7 macrophages = system: RAW264.7 macrophages; parameters: method as in PMID 20430759; conditions: cited from earlier work
COX1 = conditions: cited from earlier work
[1] = administrated orally; cited from earlier work
COX2 = conditions: cited from earlier work
[2] = dog, in vivo, po, 2 mg/kg; cited from earlier work

SMILES	IC50 (RAW264.7 macrophages)	IC50 (COX1)	Bioavailability [1]	IC50 (COX2)	Elimination t1/2 [2]
COc1ccc2c(c1)c(CC(=O)O)c(C)n2C(=O)c1ccc(Cl)cc1 [Indomethacin, reference compound]	10 nM	[…]	100%	[…]	–
CCc1ccc(Nc2c(F)c(F)cc(F)c2F)c(CC(=O)O)c1 [robenacoxib]	–	–	–	–	1.1 h
